In patent US10336702B2, “Pharmaceutically active compounds” (BERGENBIO ASA, priority 2015, dated 2019) one finds IC50 data, which are given here for 17 compounds.

Broadly, the IC50 is the concentration that gives 50% inhibition.

Common to all, as to format: biochemical
In one test the target is T1, Akt1 (Homo sapiens, UniProt P31749).
T1 construct: unspecified tag, removed (detagged) (cleaved yes); purchased SignalChem and Proteros (Akt1); Merck Millipore (PDK1) 14-452 (PDK1); none given for Akt1
T1 sequence (P31749 whole entry): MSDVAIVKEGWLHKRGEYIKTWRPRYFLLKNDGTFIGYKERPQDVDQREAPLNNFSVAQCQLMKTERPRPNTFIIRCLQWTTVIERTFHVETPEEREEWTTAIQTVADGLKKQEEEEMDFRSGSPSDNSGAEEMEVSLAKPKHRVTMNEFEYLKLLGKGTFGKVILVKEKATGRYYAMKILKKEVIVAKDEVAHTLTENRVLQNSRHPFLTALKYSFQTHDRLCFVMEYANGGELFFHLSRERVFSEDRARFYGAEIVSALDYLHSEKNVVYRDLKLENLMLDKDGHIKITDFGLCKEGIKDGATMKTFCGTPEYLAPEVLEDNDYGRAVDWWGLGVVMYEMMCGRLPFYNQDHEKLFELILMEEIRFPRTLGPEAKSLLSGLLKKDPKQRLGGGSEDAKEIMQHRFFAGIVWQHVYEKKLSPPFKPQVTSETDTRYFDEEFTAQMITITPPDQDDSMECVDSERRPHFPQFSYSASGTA
Kind of test: Akt activation assay (PDK1-mediated activation, LANCE Ultra crosstide TR-FRET), Akt1. The following applies: read-out: Biological Assay 1 IC50 (nM) Akt1. As for the experimental part:
(§1) Biological Assay 1: Akt Activation Assay
(§2) Addition of a Europium-labelled antibody specific to the phosphopeptide allows energy transfer from the Europium donor to the Ultra Ulight™ acceptor if close enough in proximity.
(§3) Full length active His6-tagged PDK1 was obtained from Merck Millipore (14-452).
(§4) 1× assay buffer (AB): 50 mM HEPES pH 7.5, 1 mM EGTA, 10 mM MgCl2, 0.01% Tween. Immediately before use, DTT to a concentration of 2 mM was added.
(§5) To prepare lipid vesicles: 1 mg/ml PtdIns(3,4,5)P3 solution (in 10 mM HEPES 7.5) was added to 16.7 mg/ml DOPS/DOPC mixture (in 10 mM HEPES pH 7.5) in a ratio of 1:8.3. MilliQ water was added to the solution to generate concentrations of 400 μM DOPS, 400 μM DOPC and 40 μM PtdIns(3,4,5)P3. The mixture was subjected to 5× freeze/thaw cycles and aliquots stored at −20° C.
(§6) 5 μL enzyme in 1×AB was incubated with 2.5 μL test compound. To start the reaction 2.5 μL reaction mix was added which consisted of PDK1, lipid preparations, crosstide and ATP in 1×AB. Final assay concentrations were as follows: 1% DMSO, 5 nM SignalChem Akt1/15 nM SignalChem Akt2/3 nM Signalchem Akt3/5 nM Proteros Akt1/5 nM proteros Akt2/5 nM Proteros Akt3, 5 nM PDK1, 5.5 μM DOPS, 5.5 μM DOPC, 0.55 μM PtdIns(3,4,5)P3, 100 μM ATP, 100 nM LANCE® Ultra Ulight™-Crosstide. After 30 min, the reaction was stopped using 5 μL 40 μM EDTA in 1× Detection buffer for 5 min. For detection, 5 μL 8 nM LANCE® Ultra Europium-anti-phospho-Crosstide antibody in 1× Detection buffer was added to each well and incubated for 1 h. Plates read with the EnVision® Multilabel Plate Reader, excitation at 320 nm and emission at 665 nm and 615 nm. Compound IC50 was determined using a 4-parameter equation.

Another test addresses T2, Akt2 (Homo sapiens, UniProt P31751).
T2 construct: unspecified tag, removed (detagged) (cleaved yes); purchased SignalChem and Proteros (Akt2); Merck Millipore (PDK1) 14-452 (PDK1); none given for Akt2
As to the kind of experiment: Akt activation assay (PDK1-mediated activation, LANCE Ultra crosstide TR-FRET), Akt2. Particulars: read-out: Biological Assay 1 IC50 (nM) Akt2. Here is the method: as §1, §2, §3, §4, §5, §6
In general terms: TR-FRET usually uses a lanthanide donor and a delayed reading to cut background.

Another test deals with T3, Akt3 (Homo sapiens, UniProt Q9Y243).
T3 construct: unspecified tag, removed (detagged) (cleaved yes); purchased SignalChem and Proteros (Akt3); Merck Millipore (PDK1) 14-452 (PDK1); none given for Akt3
T3 sequence (Q9Y243 whole entry): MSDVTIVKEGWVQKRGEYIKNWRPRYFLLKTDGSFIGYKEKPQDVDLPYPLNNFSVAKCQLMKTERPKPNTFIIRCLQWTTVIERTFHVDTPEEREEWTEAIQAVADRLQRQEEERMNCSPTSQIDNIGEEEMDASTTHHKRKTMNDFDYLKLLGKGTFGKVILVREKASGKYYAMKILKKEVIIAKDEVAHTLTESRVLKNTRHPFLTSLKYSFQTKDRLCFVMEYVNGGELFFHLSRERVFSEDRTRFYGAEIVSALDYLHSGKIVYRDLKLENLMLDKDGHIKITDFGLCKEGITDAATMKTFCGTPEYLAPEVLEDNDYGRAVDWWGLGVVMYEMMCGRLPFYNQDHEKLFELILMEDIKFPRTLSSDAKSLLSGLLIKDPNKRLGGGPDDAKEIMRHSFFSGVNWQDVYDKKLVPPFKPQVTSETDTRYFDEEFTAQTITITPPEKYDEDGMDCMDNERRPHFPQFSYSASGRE
As to the kind of experiment: Akt activation assay (PDK1-mediated activation, LANCE Ultra crosstide TR-FRET), Akt3. The following applies: read-out: Biological Assay 1 IC50 (nM) Akt3. As for the experimental part:
as §1, §2, §3, §4, §5, §6

SMILES strings stand for the structures.

T2 sequence (P31751 whole entry): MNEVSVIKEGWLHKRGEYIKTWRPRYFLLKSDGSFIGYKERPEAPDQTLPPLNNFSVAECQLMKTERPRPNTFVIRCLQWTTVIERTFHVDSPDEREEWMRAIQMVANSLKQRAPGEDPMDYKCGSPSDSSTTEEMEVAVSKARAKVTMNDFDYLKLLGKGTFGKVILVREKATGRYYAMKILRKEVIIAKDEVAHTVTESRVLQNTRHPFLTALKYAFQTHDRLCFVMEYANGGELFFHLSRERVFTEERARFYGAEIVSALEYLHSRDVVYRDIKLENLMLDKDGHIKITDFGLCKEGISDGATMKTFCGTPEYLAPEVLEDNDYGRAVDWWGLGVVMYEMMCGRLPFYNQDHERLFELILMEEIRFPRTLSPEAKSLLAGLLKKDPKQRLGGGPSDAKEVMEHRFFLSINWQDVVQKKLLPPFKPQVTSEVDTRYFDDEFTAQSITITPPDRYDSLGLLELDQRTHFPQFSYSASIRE

In the case of `COC1CCC(CC(=O)Nc2cnc(-c3ccc(C4(N)COC4)cc3)c(-c3ccccc3)c2)CC1` (mixture of isomers) [Example 21, N-(6-(4-(3-aminooxetan-3-yl)phenyl)-5-phenylpyridin-3-yl)-2-(4-methoxycyclohexyl)acetamide], the IC50 was above 55000 nM on Akt1, 1100 nM on Akt2 and 210 nM on Akt3.
As for `CC(=O)N(C)[C@H]1CC[C@H](CC(=O)Nc2cnc(-c3ccc([C@@H](C)N)cc3)c(-c3ccccc3)c2)CC1` [Example 8, N-(6-(4-((R)-1-aminoethyl)phenyl)-5-phenylpyridin-3-yl)-2-(trans-4-(N-methylacetamido)cyclohexyl)acetamide], the IC50 on Akt1 was found to be 12000 nM; on Akt2, 710 nM; at Akt3, 51 nM.
For the compound `CC(=O)N(C)[C@H]1CC[C@H](CC(=O)Nc2cnc(-c3ccc([C@H](N)C(F)F)cc3)c(-c3ccccc3)c2)CC1` [Example 11, N-(6-(4-((S)-1-amino-2,2-difluoroethyl)phenyl)-5-phenylpyridin-3-yl)-2-(trans-4-(N-methylacetamido)cyclohexyl)acetamide], the IC50 was above 30000 nM on Akt1, above 20000 nM at Akt2 and 630 nM on Akt3.
Regarding `CC(=O)N[C@H]1CC[C@H](CC(=O)Nc2cnc(-c3ccc([C@]4(N)C[C@@H](O)C4)cc3)c(-c3ccccc3)c2)CC1` [Example 13, 2-(trans-4-acetamidocyclohexyl)-N-(6-(4-(trans-1-amino-3-hydroxycyclobutyl)phenyl)-5-phenylpyridin-3-yl)acetamide], the half-inhibitory concentration (IC50) on Akt2 stood at 480 nM; on Akt3, 220 nM.
Take `CC(=O)N[C@H]1CC[C@H](CC(=O)Nc2cnc(-c3ccc(C4(N)COC4)cc3)c(-c3ccccc3)c2)CC1` [Example 14, 2-(trans-4-acetamidocyclohexyl)-N-(6-(4-(3-aminooxetan-3-yl)phenyl)-5-phenylpyridin-3-yl)acetamide]: the IC50 on Akt1 is above 30000 nM; on Akt2, 1300 nM; at Akt3, 600 nM.
On to `Cc1cscc1-c1cc(NC(=O)C[C@H]2CC[C@H](N(C)S(C)(=O)=O)CC2)cnc1-c1ccc(C2(N)CCC2)cc1` [Example 19, N-(6-(4-(1-aminocyclobutyl)phenyl)-5-(4-methylthiophen-3-yl)pyridin-3-yl)-2-(trans-4-(N-methylmethylsulfonamido)cyclohexyl)acetamide], for which the IC50 is above 30000 nM on Akt1, above 26000 nM on Akt2 and 6400 nM at Akt3.
Turning to `CC(C)(C(=O)N[C@H]1CC[C@H](CC(=O)Nc2cnc(-c3ccc(C4(N)CCC4)cc3)c(-c3cccnc3)c2)CC1)C(F)(F)F` [Example 20, N-(trans-4-(2-((2-(4-(1-aminocyclobutyl)phenyl)-[3,3′-bipyridin]-5-yl)amino)-2-oxoethyl)cyclohexyl)-3,3,3-trifluoro-2,2-dimethylpropanamide], the IC50 was above 30000 nM at Akt1, above 15000 nM on Akt2 and 6800 nM at Akt3.
On to `C[C@@H]1CC(CC(=O)Nc2cnc(-c3ccc(C4(N)COC4)cc3)c(-c3ccccc3)c2)C[C@H](C)O1` (some centres unmarked) [Example 22, N-(6-(4-(3-aminooxetan-3-yl)phenyl)-5-phenylpyridin-3-yl)-2-((2r,6s)-2,6-dimethyltetrahydro-2H-pyran-4-yl)acetamide], for which the IC50 at Akt1 was above 30000 nM; at Akt2, 2600 nM; on Akt3, 210 nM.
On to `Cc1nncn1[C@H]1CC[C@H](CC(=O)Nc2cnc(-c3ccc(C(C)(C)N)cc3)c(-c3ccccc3)c2)CC1` [Example 23, N-(6-(4-(2-aminopropan-2-yl)phenyl)-5-phenylpyridin-3-yl)-2-(trans-4-(3-methyl-4H-1,2,4-triazol-4-yl)cyclohexyl)acetamide], for which the IC50 is above 30000 nM at Akt1, 11000 nM at Akt2 and 430 nM at Akt3.
On to `CC(=O)N[C@H]1CC[C@H](CC(=O)Nc2cnc(-c3ccc(C4(N)CC(F)(F)C4)cc3)c(-c3ccccc3)c2)CC1` [Example 25, 2-(trans-4-acetamidocyclohexyl)-N-(6-(4-(1-amino-3,3-difluorocyclobutyl)phenyl)-5-phenylpyridin-3-yl)acetamide], for which the IC50 at Akt1 stood at 8300 nM; on Akt2, 270 nM; on Akt3, 170 nM.
Regarding `NC1(c2ccc(-c3ncc(NC(=O)C[C@H]4CC[C@H](NS(=O)(=O)C5CC5)CC4)cc3-c3ccccc3)cc2)COC1` [Example 37, N-(6-(4-(3-aminooxetan-3-yl)phenyl)-5-phenylpyridin-3-yl)-2-(trans-4-(cyclopropanesulfonamido)cyclohexyl)acetamide], the IC50 on Akt1 is above 30000 nM; at Akt2, 590 nM; at Akt3, 56 nM.
For the compound `C[C@]1(O)C[C@@](N)(c2ccc(-c3ncc(NC(=O)C[C@H]4CC[C@H](NC(=O)C(F)F)CC4)cc3-c3ccccc3)cc2)C1` [Example A5, N-(trans-4-(2-((6-(4-(trans-1-amino-3-hydroxy-3-methylcyclobutyl)phenyl)-5-phenylpyridin-3-yl)amino)-2-oxoethyl)cyclohexyl)-2,2-difluoroacetamide], the figures for the IC50 at Akt1, at Akt2 and on Akt3 were 760 nM, 43 nM and 10 nM, respectively.
Taken in the same sequence, the figures for `CC(C)(C(=O)N[C@H]1CC[C@H](CC(=O)Nc2cnc(-c3ccc(C4(N)COC4)cc3)c(-c3ccccc3)c2)CC1)C(F)(F)F` [Example A6, N-(trans-4-(2-((6-(4-(3-aminooxetan-3-yl)phenyl)-5-phenylpyridin-3-yl)amino)-2-oxoethyl)cyclohexyl)-3,3,3-trifluoro-2,2-dimethylpropanamide] were above 30000 nM, 1400 nM and 130 nM.
As for `CC(=O)N[C@H]1CC[C@H](CC(=O)Nc2cnc(-c3ccc([C@H](C)N)cc3)c(-c3ccccc3)c2)CC1` [Example A8, 2-(trans-4-acetamidocyclohexyl)-N-(6-(4-((S)-1-aminoethyl)phenyl)-5-phenylpyridin-3-yl)acetamide], the IC50 was above 30000 nM at Akt1, 6900 nM at Akt2 and 530 nM at Akt3.
For `CC(=O)N[C@H]1CC[C@H](CC(=O)Nc2cnc(-c3ccc([C@@H](C)N)cc3)c(-c3ccccc3)c2)CC1` [Example A9, 2-(trans-4-acetamidocyclohexyl)-N-(6-(4-((R)-1-aminoethyl)phenyl)-5-phenylpyridin-3-yl)acetamide], the half-maximal inhibitory concentration (IC50) is 400 nM on Akt2 and 80 nM on Akt3.
Consider `C[C@@H](N)c1ccc(-c2ncc(NC(=O)C[C@H]3CC[C@H](NC(=O)C(C)(C)C(F)(F)F)CC3)cc2-c2ccccc2)cc1` [Example A11, N-(trans-4-(2-((6-(4-((R)-1-aminoethyl)phenyl)-5-phenylpyridin-3-yl)amino)-2-oxoethyl)cyclohexyl)-3,3,3-trifluoro-2,2-dimethylpropanamide], for which the IC50 on Akt2 came out at 1500 nM; at Akt3, 880 nM.
Turning to `CC(C)(C)C(=O)N[C@H]1CC[C@H](CC(=O)Nc2cnc(-c3ccc(C(C)(C)N)cc3)c(-c3ccccc3)c2)CC1` [Example A34, N-(trans-4-(2-((6-(4-(2-aminopropan-2-yl)phenyl)-5-phenylpyridin-3-yl)amino)-2-oxoethyl)cyclohexyl)pivalamide], the 50% inhibitory concentration (IC50) was above 30000 nM on Akt1 and 160 nM on Akt3.
